Read-outs that look alike come from different tables or passages of the source.
How the values were obtained:
[1] = system: Meloidogyne incognita; assay: Meloidogyne incognita test (MELGIN), gall formation on salad seedlings; assay type: in vivo; details: application rate 20 ppm, after 14 days
Procedure: Meioidovnve incomita—Test (MELGIN)
Solvent: 125.0 parts by weight of acetone
To produce a suitable preparation of active compound, 1 part by weight of active compound is mixed with the stated amount of solvent, and the concentrate is diluted with water to the desired concentration.
Vessels are filled with sand, a solution of the active ingredient, a suspension containing eggs and larvae of the southern root-knot nematode (Meloidogyne incognita) and salad seeds. The salad seeds germinate and the seedlings grow. Galls develop in the roots.
After 14 days the nematicidal activity is determined on the basis of the percentage of gall formation. 100% means that no galls were found; 0% means the number of galls found on the roots of the treated plants was equal to that in untreated control plants.

[2] = Measurement of log P values by HPLC on reversed phase columns (methods [a] pH 2.3, [b] pH 2.7, [c] pH 7.8); assay type: physicochemical; details: for chromatographic logP: reversed phase HPLC columns
Summary of the method: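 Retention times were converted to log P by linear interpolation between linear alkan-2-one standards (3 to 16 carbons) of known log P. Eluents, each with 10% to 95% acetonitrile gradient: phosphoric acid 0.1% at pH 2.3 [a]; formic acid 0.1% at pH 2.7, LC-MS [b]; ammonium hydrogen carbonate 0.001 molar at pH 7.8, LC-MS [c].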

[3] = HPLC on reversed phase columns, method [b], pH 2.7
[4] = HPLC reversed phase, method [b] (pH 2.7)
[5] = method [b], HPLC reversed phase, pH 2.7
[6] = HPLC on reversed phase column, method [b], pH 2.7
[7] = HPLC on reversed phase column, method [c], pH 7.8

Row | Structure (SMILES) | nematicidal activity (percentage of gall formation; 100% = no galls) [1] [%] | logP [2, 4] | other results
1 | CCOc1ccccc1C(=O)N[C@@H]1CCC[C@@H]1c1ccc(F)c(F)c1 (relative stereo) [Compound 115] | 90 |  | logP [2, 3]: 3.80^[b]
2 | O=C(N[C@@H]1CC[C@@H]1c1ccccc1Cl)c1ccccc1I (relative stereo) [Compound 250] | 100 | 3.23^[b] | 
3 | O=C(N[C@@H]1CC[C@@H]1c1ccccc1Cl)c1ccccc1[N+](=O)[O-] (relative stereo) [Compound 538] | 100 | 2.71^[b] | 
4 | O=C(N[C@@H]1CC[C@@H]1c1ccccc1Cl)c1cccnc1C(F)(F)F (relative stereo) [Compound 254] | 90 | 2.69^[b] | 
5 | O=C(NC1CCC1c1ccccc1C(F)(F)F)c1ccc(Cl)cc1Cl (stereo not shown) [Compound 217] | 90 |  | logP [2, 5]: 3.81^[b]
6 | O=C(N[C@@H]1CC[C@@H]1c1ccccc1C(F)(F)F)c1nccnc1Cl (relative stereo) [Compound 623] | 100 |  | logP [2, 6]: 2.79^[b]
7 | O=C(N[C@@H]1CC[C@@H]1c1cccc(F)c1C(F)(F)F)c1nccnc1Cl (relative stereo) [Compound 645] | 100 |  | logP [2, 6]: 2.78^[b]
8 | O=C(N[C@@H]1CC[C@@H]1c1ccc(F)cc1C(F)(F)F)c1nccnc1Cl (relative stereo) [Compound 516] | 100 | 2.89^[b] | 
9 | O=C(N[C@@H]1CC[C@@H]1c1cc(F)ccc1C(F)(F)F)c1ccccc1I (relative stereo) [Compound 541] | 100 | 3.52^[b] | 
10 | Cc1occc1C(=O)N[C@@H]1C[C@@H]1c1ccc(Cl)cc1Cl (relative stereo) [Compound 611] | 90 |  | logP [2, 6]: 3.02^[b]; logP [2, 7]: 2.89^[c];
11 | O=C(N[C@@H]1CC[C@@H]1c1c(F)cccc1C(F)(F)F)c1cccnc1Cl (relative stereo) [Compound 575] | 100 | 2.83^[b] | 
12 | O=C(N[C@@H]1CC[C@@H]1c1ccccc1Cl)c1ccccc1Cl (relative stereo) [Compound 248] | 90 | 3.08^[b] | 
13 | O=C(N[C@@H]1CC[C@H]1c1ccc(F)cc1C(F)(F)F)c1ccccc1C(F)(F)F (relative stereo) [Compound 494] | 90 | 3.72^[b] | 
14 | O=C(N[C@@H]1CC[C@@H]1c1ccc(Cl)cc1Cl)c1ccccc1Cl (relative stereo) [Compound 261] | 100 | 3.45^[b] | 
15 | O=C(N[C@@H]1CC[C@@H]1c1cccc(F)c1C(F)(F)F)c1ccccc1 (relative stereo) [Compound 592] | 100 |  | logP [2, 6]: 3.01^[b]
16 | O=C(N[C@@H]1CC[C@@H]1c1ccccc1Cl)c1cccnc1 (relative stereo) [Compound 555] | 90 | 1.18^[b] | 
17 | O=C(NC1CCC1c1ccccc1C(F)(F)F)c1ncccc1Br (stereo not shown) [Compound 695] | 100 |  | logP [2, 6]: 3.17^[b]; logP [2, 7]: 3.10^[c];
18 | O=C(NC1CCCC1c1ccccc1Br)c1cccnc1C(F)(F)F (stereo not shown) [Compound 346] | 100 | 3.13^[b] | 
19 | O=C(N[C@@H]1CC[C@@H]1c1ccccc1C(F)(F)F)c1ccccc1[N+](=O)[O-] (relative stereo) [Compound 638] | 100 |  | logP [2, 6]: 2.93^[b]
20 | O=C(NC1CCCCC1c1ccc(Cl)cc1Cl)c1cccnc1C(F)(F)F (stereo not shown) [Compound 414] | 100 | 4.03^[b] | 
21 | O=C(NC1CCCC1c1ccc(Cl)cc1Cl)c1cccnc1C(F)(F)F (stereo not shown) [Compound 358] | 100 | 3.54^[b] | 
22 | O=C(NC1CCC1c1c(F)cccc1F)c1ccccc1Cl (stereo not shown) [Compound 443] | 90 | 2.97^[b] | 
23 | O=C(NC1CCC1c1ccccc1C(F)(F)F)c1ccccc1I (stereo not shown) [Compound 427] | 100 | 3.44^[b] | 

Row | Structure (SMILES) | nematicidal activity (percentage of gall formation; 100% = no galls) [1] [%] | logP [2, 4] | other results
24 | O=C(NC1CC1c1ccc(Cl)cc1)c1ccccc1C(F)(F)F (stereo not shown) [Compound 271] | 90 | 2.98^[b] | logP ([2]; HPLC reversed phase, method [c] pH 7.8): 2.94^[c];
25 | O=C(N[C@@H]1CC[C@@H]1c1ccc(Cl)cc1Cl)c1ncccc1Cl (relative stereo) [Compound 260] | 100 | 3.28^[b] | 
26 | O=C(NC1CC1c1ccc(Cl)cc1Cl)c1ccccc1C(F)(F)F (stereo not shown) [Compound 424] | 100 | 3.46^[b] | 
27 | O=C(N[C@@H]1C[C@@H]1c1ccc(Cl)cc1Cl)c1ccccc1[N+](=O)[O-] (relative stereo) [Compound 558] | 100 | 2.94^[b] | 
28 | O=C(N[C@@H]1CC[C@@H]1c1cc(F)ccc1C(F)(F)F)c1cccnc1Cl (relative stereo) [Compound 571] | 100 | 2.75^[b] | 
29 | O=C(NC1CCC1c1ccccc1C(F)(F)F)c1ncccc1Cl (stereo not shown) [Compound 215] | 90 |  | logP [2, 5]: 3.01^[b]
30 | O=C(N[C@H]1CCC1c1c(F)cccc1F)c1cccnc1C(F)(F)F (stereo in doubt) [Compound 236, cis-N-[2-(2,6-difluorophenyl)cyclobutyl]-2-(trifluoromethyl)nicotinamide] | 100 |  | chromatographic logP ([2]; HPLC-MS, method letter not given, read-out: log P): 2.6; chromatographic logP ([2]; pH 2.7, method [b], HPLC reversed phase, pH 2.7, read-out: logP): 2.6
31 | O=C(N[C@@H]1CC[C@@H]1c1ccc(F)cc1C(F)(F)F)c1ccccc1 (relative stereo) [Compound 505] | 90 | 2.97^[b] | 
32 | O=C(NC1CCCC1c1ccc(Cl)cc1Cl)c1ccccc1C(F)(F)F (stereo not shown) [Compound 353] | 100 | 4.04^[b] | 
33 | O=C(N[C@@H]1CC[C@@H]1c1c(F)cccc1C(F)(F)F)c1ccccc1 (relative stereo) [Compound 551] | 100 | 3.23^[b] | 
34 | O=C(N[C@@H]1CC[C@@H]1c1c(F)cccc1C(F)(F)F)c1ncc(C(F)(F)F)cc1Cl (relative stereo) [Compound 543] | 90 | 4.13^[b] | 
35 | O=C(N[C@@H]1CC[C@H]1c1ccc(Cl)cc1Cl)c1ccccc1Cl (relative stereo) [Compound 256] | 90 | 3.90^[b] | 
36 | O=C(N[C@@H]1CC[C@@H]1c1cccc(F)c1C(F)(F)F)c1ccccc1[N+](=O)[O-] (relative stereo) [Compound 630] | 100 |  | logP [2, 6]: 2.94^[b]
37 | O=C(NC1CCCC1c1c(F)cccc1F)c1ccccc1Cl (stereo not shown) [Compound 311] | 90 | 3.24^[b] | 
38 | O=C(N[C@@H]1CC[C@@H]1c1ccc(F)cc1C(F)(F)F)c1c(F)cccc1F (relative stereo) [Compound 493] | 100 | 3.18^[b] | 
39 | O=C(N[C@@H]1CC[C@@H]1c1ccc(F)cc1C(F)(F)F)c1cccnc1Cl (relative stereo) [Compound 515] | 100 | 2.73^[b] | 
40 | O=C(N[C@@H]1CC[C@@H]1c1c(F)cccc1C(F)(F)F)c1ccccc1Br (relative stereo) [Compound 563] | 100 | 3.46^[b] | 
41 | O=C(N[C@@H]1CC[C@H]1c1ccc(F)cc1C(F)(F)F)c1ccccc1Br (relative stereo) [Compound 501] | 100 | 3.64^[b] | 
42 | CSc1ccccc1C(=O)N[C@@H]1CCC[C@@H]1c1ccc(F)c(F)c1 (relative stereo) [Compound 82] | 90 |  | logP [2, 3]: 3.35^[b]
43 | O=C(NC1CCCC1c1ccc(Cl)cc1Cl)c1ccccc1I (stereo not shown) [Compound 352] | 100 | 4.04^[b] | 
44 | O=C(N[C@@H]1CC[C@@H]1c1ccc(F)cc1C(F)(F)F)c1ccccc1[N+](=O)[O-] (relative stereo) [Compound 522] | 90 | 3.04^[b] | 
45 | O=C(N[C@@H]1CC[C@@H]1c1ccc(F)cc1C(F)(F)F)c1cccnc1 (relative stereo) [Compound 523] | 90 | 2.18^[b] | 

From patent US20160075653A1, “NEMATICIDAL N-(PHENYLCYCLOALKYL)CARBOXAMIDES AND N-(PHENYLCYCLOALKYL)THIOCARBOXAMIDES” (BAYER CROPSCIENCE AKTIENGESELLSCHAFT, priority 2013, published 2016)
